Data taken from the supplement of paper PMC9663587.

Legend:
[1] = compound: CCc1cnn2c(NCc3ccc[n+]([O-])c3)cc(N3CCCC[C@H]3CCO)nc12
LEE011/Ribociclib [2] = compound: T1, CN(C)C(=O)c1cc2cnc(Nc3ccc(N4CCNCC4)cn3)nc2n1C1CCCC1 [LEE011/Ribociclib]
Doxorubicin = compound: COc1cccc2c1C(=O)c1c(O)c3c(c(O)c1C2=O)C[C@@](O)(C(=O)CO)C[C@@H]3O[C@H]1C[C@H](N)[C@H](O)[C@H](C)O1 [Doxorubicin]
Pictilisib/GDC0941 = compound: CS(=O)(=O)N1CCN(Cc2cc3nc(-c4cccc5[nH]ncc45)nc(N4CCOCC4)c3s2)CC1 [Pictilisib/GDC0941]
Ceritinib/LDK378 = compound: Cc1cc(Nc2ncc(Cl)c(Nc3ccccc3S(=O)(=O)C(C)C)n2)c(OC(C)C)cc1C1CCNCC1 [Ceritinib/LDK378]
[3] = compound: Cc1nn(C)c(COc2ccc(N3CCN(S(=O)(=O)N(C)C)CC3)cc2)c1-c1cccc2c(CCCOc3cccc4ccccc34)c(C(=O)O)n(CCN3CCOCC3)c12
YKL-5-124 = compound: C=CC(=O)Nc1ccc(C(=O)Nc2[nH]nc3c2CN(C(=O)N[C@H](CN(C)C)c2ccccc2)C3(C)C)cc1 [YKL-5-124]; test: increase in dead-cell fraction, 72 h; higher = more death;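 further: breast cancer cell lines in 384-well plates, stained with Hoechst plus LIVE/DEAD far red dye and imaged, cells above an LDR intensity threshold counted dead, Hoechst-negative corpses included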
BSJ-03-123 = compound: CC(=O)c1c(C)c2cnc(Nc3ccc(N4CCN(CCOCCOCCOCCNC(=O)COc5cccc6c5C(=O)N(C5CCC(=O)NC5=O)C6=O)CC4)cn3)nc2n(C2CCCC2)c1=O [BSJ-03-123]; test: as above
[4] = compound: CC(=O)c1c(C)c2cnc(Nc3ccc(N4CCNCC4)cn3)nc2n(C2CCCC2)c1=O; test: as above
[5] = compound: CCN1CCN(Cc2ccc(Nc3ncc(F)c(-c4cc(F)c5nc(C)n(C(C)C)c5c4)n3)nc2)CC1; test: as above
Neratinib/HKI272 = compound: CCOc1cc2ncc(C#N)c(Nc3ccc(OCc4ccccn4)c(Cl)c3)c2cc1NC(=O)/C=C/CN(C)C [Neratinib/HKI272]; test: as above
[6] = compound: CCc1cnn2c(NCc3ccc[n+]([O-])c3)cc(N3CCCC[C@H]3CCO)nc12; test: as above
LEE011/Ribociclib [7] = compound: T1, LEE011/Ribociclib; test: as above
THZ531 = compound: CN(C)C/C=C/C(=O)Nc1ccc(C(=O)N2CCC[C@@H](Nc3ncc(Cl)c(-c4c[nH]c5ccccc45)n3)C2)cc1 [THZ531]; test: as above
THZ1 = compound: CN(C)C/C=C/C(=O)Nc1ccc(C(=O)Nc2cccc(Nc3ncc(Cl)c(-c4c[nH]c5ccccc45)n3)c2)cc1 [THZ1]; test: as above
Flavopiridol = compound: CN1CC[C@H](c2c(O)cc(O)c3c(=O)cc(-c4ccccc4Cl)oc23)[C@H](O)C1 [Flavopiridol]; test: as above
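Wherever GR50, 72 h is given: breast cancer and non-malignant breast epithelial cell lines, Deep Dye Drop or Dye Drop imaging, nine half-log doses, GR normalized to time-zero plates and DMSO-only controls.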

With SUM44PE the “GR50, 72 h” value [1] was 0.00834 µM, the “GR50, 72 h” value (LEE011/Ribociclib [2]) was 2.54 µM and the “GR50, 72 h” value (Doxorubicin) was 0.0211 µM. For the same cell line, the “GR50, 72 h” value (Pictilisib/GDC0941) was 0.435 µM, the “GR50, 72 h” value (Ceritinib/LDK378) was 2.56 µM and the “GR50, 72 h” value [3] was 3.31 µM. The “increase in dead-cell fraction” value (YKL-5-124; 0.001 µM) was 0.376, the “increase in dead-cell fraction” value (YKL-5-124; 0.003162 µM) was 0.0121 and the “increase in dead-cell fraction” value (YKL-5-124; 0.01 µM) was 0.0391. The “increase in dead-cell fraction” value (YKL-5-124; 0.03162 µM) was 0.053, the “increase in dead-cell fraction” value (YKL-5-124; 0.1 µM) was 0.0951 and the “increase in dead-cell fraction” value (YKL-5-124; 0.3162 µM) was 0.0965. The “increase in dead-cell fraction” value (YKL-5-124; 1 µM) was 0.127, the “increase in dead-cell fraction” value (YKL-5-124; 3.162 µM) was 0.447 and the “increase in dead-cell fraction” value (BSJ-03-123; 0.001 µM) was 0.0021. For the same cell line, the “increase in dead-cell fraction” value (BSJ-03-123; 0.003162 µM) was 0.0071, the “increase in dead-cell fraction” value (BSJ-03-123; 0.01 µM) was 0.0014 and the “increase in dead-cell fraction” value (BSJ-03-123; 0.03162 µM) was 0.0121. For the same cell line, the “increase in dead-cell fraction” value (BSJ-03-123; 0.1 µM) was 0.0265, the “increase in dead-cell fraction” value (BSJ-03-123; 0.3162 µM) was 0.0126 and the “increase in dead-cell fraction” value (BSJ-03-123; 1 µM) was 0.0666. The “increase in dead-cell fraction” value (BSJ-03-123; 3.162 µM) was 0.115, the “increase in dead-cell fraction” value ([4]; 0.0003162 µM) was -0.0301 and the “increase in dead-cell fraction” value ([4]; 0.001 µM) was 0.0185. For the same cell line, the “increase in dead-cell fraction” value ([4]; 0.003162 µM) was 0.0057, the “increase in dead-cell fraction” value ([4]; 0.01 µM) was -0.0159 and the “increase in dead-cell fraction” value ([4]; 0.03162 µM) was 0.0328. For the same cell line, the “increase in dead-cell fraction” value ([4]; 0.1 µM) was 0.0351, the “increase in dead-cell fraction” value ([4]; 0.3162 µM) was 0.0647 and the “increase in dead-cell fraction” value ([4]; 1 µM) was -0.0062. For the same cell line, the “increase in dead-cell fraction” value ([4]; 3.162 µM) was 0.0016, the “increase in dead-cell fraction” value ([5]; 0.001 µM) was 0.0036 and the “increase in dead-cell fraction” value ([5]; 0.003162 µM) was -0.0095. The “increase in dead-cell fraction” value ([5]; 0.01 µM) was 0.0221, the “increase in dead-cell fraction” value ([5]; 0.03162 µM) was 0.0221 and the “increase in dead-cell fraction” value ([5]; 0.1 µM) was -0.017. For the same cell line, the “increase in dead-cell fraction” value ([5]; 0.3162 µM) was 0.0843, the “increase in dead-cell fraction” value ([5]; 1 µM) was 0.0751 and the “increase in dead-cell fraction” value ([5]; 3.162 µM) was 0.0328. For the same cell line, the “increase in dead-cell fraction” value ([5]; 10 µM) was 0.697, the “increase in dead-cell fraction” value (Neratinib/HKI272; 0.0003162 µM) was -0.0158 and the “increase in dead-cell fraction” value (Neratinib/HKI272; 0.001 µM) was -0.0227. The “increase in dead-cell fraction” value (Neratinib/HKI272; 0.003162 µM) was -0.0156, the “increase in dead-cell fraction” value (Neratinib/HKI272; 0.01 µM) was 0.029 and the “increase in dead-cell fraction” value (Neratinib/HKI272; 0.03162 µM) was 0.0991. For the same cell line, the “increase in dead-cell fraction” value (Neratinib/HKI272; 0.1 µM) was 0.118, the “increase in dead-cell fraction” value (Neratinib/HKI272; 0.3162 µM) was 0.137 and the “increase in dead-cell fraction” value (Neratinib/HKI272; 1 µM) was 0.22. The “increase in dead-cell fraction” value (Neratinib/HKI272; 3.162 µM) was 0.358, the “increase in dead-cell fraction” value ([6]; 0.0001 µM) was 0.0041 and the “increase in dead-cell fraction” value ([6]; 0.0003162 µM) was -0.0148. For the same cell line, the “increase in dead-cell fraction” value ([6]; 0.001 µM) was 0.0007, the “increase in dead-cell fraction” value ([6]; 0.003162 µM) was -0.0141 and the “increase in dead-cell fraction” value ([6]; 0.01 µM) was 0.102. The “increase in dead-cell fraction” value ([6]; 0.03162 µM) was 0.894, the “increase in dead-cell fraction” value (LEE011/Ribociclib [7]; 0.001 µM) was 0.0007 and the “increase in dead-cell fraction” value (LEE011/Ribociclib [7]; 0.003162 µM) was -0.0447. For the same cell line, the “increase in dead-cell fraction” value (LEE011/Ribociclib [7]; 0.01 µM) was 0.0327, the “increase in dead-cell fraction” value (LEE011/Ribociclib [7]; 0.03162 µM) was -0.0402 and the “increase in dead-cell fraction” value (LEE011/Ribociclib [7]; 0.1 µM) was 0.0001. The “increase in dead-cell fraction” value (LEE011/Ribociclib [7]; 0.3162 µM) was -0.0342, the “increase in dead-cell fraction” value (LEE011/Ribociclib [7]; 1 µM) was 0.0417 and the “increase in dead-cell fraction” value (LEE011/Ribociclib [7]; 3.162 µM) was -0.0186. For the same cell line, the “increase in dead-cell fraction” value (LEE011/Ribociclib [7]; 10 µM) was -0.0286, the “increase in dead-cell fraction” value (THZ531; 0.0001 µM) was -0.0163 and the “increase in dead-cell fraction” value (THZ531; 0.0003162 µM) was -0.0027. For the same cell line, the “increase in dead-cell fraction” value (THZ531; 0.001 µM) was 0.0202, the “increase in dead-cell fraction” value (THZ531; 0.003162 µM) was -0.008 and the “increase in dead-cell fraction” value (THZ531; 0.01 µM) was -0.0392. The “increase in dead-cell fraction” value (THZ531; 0.03162 µM) was -0.0411, the “increase in dead-cell fraction” value (THZ531; 0.1 µM) was 0.0916 and the “increase in dead-cell fraction” value (THZ1; 0.0001 µM) was 0.0181. For the same cell line, the “increase in dead-cell fraction” value (THZ1; 0.0003162 µM) was -0.0186, the “increase in dead-cell fraction” value (THZ1; 0.001 µM) was 0.0262 and the “increase in dead-cell fraction” value (THZ1; 0.003162 µM) was -0.0493. The “increase in dead-cell fraction” value (THZ1; 0.01 µM) was 0.0625, the “increase in dead-cell fraction” value (THZ1; 1 µM) was 0.0767 and the “increase in dead-cell fraction” value (Flavopiridol; 0.0001 µM) was -0.0156. The “increase in dead-cell fraction” value (Flavopiridol; 0.0003162 µM) was -0.0093, the “increase in dead-cell fraction” value (Flavopiridol; 0.001 µM) was -0.0478 and the “increase in dead-cell fraction” value (Flavopiridol; 0.003162 µM) was -0.0522. The “increase in dead-cell fraction” value (Flavopiridol; 0.01 µM) was 0.0491, the “increase in dead-cell fraction” value (Flavopiridol; 0.03162 µM) was 0.0151 and the “increase in dead-cell fraction” value (Flavopiridol; 0.1 µM) was 0.263. The “increase in dead-cell fraction” value (Flavopiridol; 0.3162 µM) was 0.457.
